The text below walks through data of patent US10450298B2, “PET Imaging agents” (Novartis AG, priority 2015, dated 2019).

pIC50: −log10 of the molar value.

A word on the pIC50: it is −log10 of the IC50, conventionally taken in molar units.

The experiment has as its target Recombinant human ATX (Homo sapiens (Human), UniProt Q13822). Put plainly: Assessing ATX inhibition (choline release, Amplex Red fluorescence). Particulars: ATX 10 nM, LPC 18:1 10 μM, pre-incubated at 37° C. for 20 minutes; mean of n≥2. The class given is biochemical. How it is done:
Reagents—LPC (oleoyl (18:1)) was purchased from Avanti Polar Lipids (Alabaster, Ala.) and solubilized in methanol to 20 mM. Amplex Red was obtained from Invitrogen Life Technologies (Paisley, UK) and dissolved in DMSO to 10 mM. Choline oxidase and horseradish peroxidase (HRP) were obtained from Sigma Aldrich (Dorset, UK) and dissolved in HBSS to 20 U/ml and 200 U/ml respectively. All reagents were stored at −20° C. in single use aliquots. All experimental measurements were performed in assay buffer made up immediately prior to use (HBSS, 0.01% BSA essentially fatty acid free).
Protein—Recombinant human ATX was prepared at Novartis (Basel, CH) in a human embryonic kidney (HEK) cell preparation, and stored in single use aliquots of […] (26 μM) stocks stored at −80° C.
Method—All experimental measurements should be performed in black 384 well polystyrene (low volume, round bottom, Corning (3676)) plates. PerkinElmer EnVision (Fluorescence Intensity/Absorbance Monochromator) or Tecan Infinite 200 PRO series plate reader was used to detect change in fluorescent intensity.
Assessing ATX inhibition—ATX activity was determined by measurement of released choline in reactions containing ATX (10 nM), choline oxidase (0.1 U/ml), HRP (100 U/ml), amplex red (50 μM) and LPC 18:1 (10 μM). Compounds of the invention should be prepared as 10 point serial dilutions from 1 μM in duplicate and pre-incubated with ATX at 37° C. for 20 minutes prior to the addition of remaining reagents. The liberated choline was measured from changes in fluorescence intensity (λex 530 nm, λm 590 nm) of the product resurofin at 37° C. every 2 minutes over a 40-minute period. ATX activity was measured as a slope of the linear portion of the progress curve, typically between 14 to 24 minutes.
Data analysis—Slope data was exported to Graphpad prism (Graphpad software, San Diego, Calif.) where data was fitted to equation 1. Y=Bottom+(Top−Bottom)/(1+10^((Log IC50−X)*HillSlope)) Equation 1
IC50 values were determined from the concentration of compound that reduced the total activity by 50% and represent the mean of n≥2.

As for `Cc1nnn(Cc2cc(C(F)(F)F)ccc2/C=C/C(=O)N2CCN(Cc3coc(CF)n3)C[C@H]2C)n1`, the pIC50 is 8.85.

For `Cc1nnn(Cc2cc(Cl)ccc2/C=C/C(=O)N2CCN(Cc3ccc(OCCOCCF)cn3)C[C@H]2C)n1`, the pIC50 is 8.30.

In the case of `Cc1nnn(Cc2cc(C(F)(F)F)ccc2/C=C/C(=O)N2CCN(Cc3ccc(OCCF)cn3)C[C@H]2C)n1`, the pIC50 is 8.52.

For the compound `Cc1nnn(Cc2cc(C(F)(F)F)ccc2/C=C/C(=O)N2CCN(Cc3ccc(OCCOCCF)cn3)C[C@H]2C)n1`, the pIC50 was 8.22.

As for `Cc1nnn(Cc2cc(Cl)ccc2/C=C/C(=O)N2CCN(Cc3ccc(OCCF)cn3)C[C@H]2C)n1`, the pIC50 was 8.40.

On to `Cc1nnn(Cc2cc(C(F)(F)F)ccc2CCC(=O)N2CCN(Cc3ccc(OCCF)cn3)C[C@H]2C)n1`, for which the pIC50 is 8.70.

On to `COc1cc(CN2CCN(C(=O)/C=C/c3ccc(Cl)cc3Cn3nnc(C)n3)CC2)ccn1`, for which the pIC50 was 7.89.
